According to patent US20210069272A1, “METHODS FOR SKIN WHITENING, ULTRAVIOLET RADIATION PROTECTION AND SUPPRESSION OF GLYCATION USING GREEN MANGO EXTRACTS AND COMPOUNDS OBTAINED THEREFROM” (TCI CO., LTD., priority 2019, published 2021):

Tests used:
[1] = system: porcine collagen; assay: Anti-glycation assay, AGEs formation due to collagen glycation with fructose; format: biochemical; conditions: 100 μg/mL aqueous solution, 50° C., 24 hours
Procedure: In order to evaluate the anti-glycation activity of the green mango extract, an anti-glycation assay was performed to determine the inhibitory effect of the green mango extract described in Example 1 on glycation of porcine collagen. Briefly, a 60 mg/mL collagen solution (containing 0.06% sodium azide) and a 1.5 M fructose solution were first prepared using a 200 mM phosphate buffer (pH 7.4). For collagen to undergo glycation, a mixture of 0.2 mL of the collagen solution and 0.2 mL of the fructose solution was mixed thoroughly with 0.2 mL of the green mango extract sample at 140, 70, 14, 1.4, or 0.14 mg/mL (diluted with deionized water), or mixed with deionized water (as a control). The reaction mixtures were incubated at 50° C. for 24 hours. Thereafter, aminoguanidine (AG, purchased from Sigma) was added to terminate the glycation reaction. […] The reaction mixtures were incubated at 50° C. for 24 hours, and the fluorescence intensity of each of the mixtures (0.1 mL) at 0 hours and 24 hours was measured to calculate the rate of AGEs formation due to collagen glycation.

[2] = system: melanoma cells B16F10; assay: Melanin production assay in melanoma cells B16F10; format: cell-based, mouse; conditions: 0.25 mg/mL, 48 hours
Procedure: The melanin levels in B 16F10 melanoma cells were determined according to procedures described below. Cells were harvested from the cell culture treated as indicated. The cells were washed with PBS and treated with trypsin for 3 minutes. The suspended cells were collected by centrifugation (400×g, 5 minutes), washed twice with PBS, and then resuspended in 200 μL of PBS. The cell suspension was frozen in liquid nitrogen for 10 minutes and then left at room temperature for about 30 minutes until completely thawed, followed by centrifugation (12,000 g, 3 minutes) to remove the supernatant. The remaining cell pellet was mixed thoroughly with 120 μL of 1 N sodium hydroxide aqueous solution, and heated at 60° C. for 1 hour to obtain a cell lysate containing dissolved melanin. 100 μL of the cell lysate was transferred to a 96-well plate, and the absorbance at 450 nm (OD450) was measured using an enzyme-linked immunosorbent assay (ELISA) reader (BioTek). The relative melanin level is calculated according to the following formula: Relative melanin level (%)=(OD450each group/OD450mock control)×100% In order to examine the effect of the green mango extract on melanin production, the melanoma cells B16F10 was assayed for melanin production after treatment with the green mango extract described in Example 1. […]

Row | Structure (SMILES) | AGEs formation compared to the control [1] | inhibitory effect on melanin production, green mango extract versus kojic acid at the same concentration [2]
1 | O=C(OCC1OC(OC(=O)c2cc(O)c(O)c(O)c2)C(OC(=O)c2cc(O)c(O)c(O)c2)C(OC(=O)c2cc(O)c(O)c(O)c2)C1OC(=O)c1cc(O)c(O)c(O)c1)c1ccc(O)cc1 (stereo not drawn) [formula (I)] | about 60.2% | 
2 | O=C(OCC1OC(OC(=O)c2cc(O)c(O)c(O)c2)C(OC(=O)c2cc(O)c(O)c(O)c2)C(OC(=O)c2cc(O)c(O)c(O)c2)C1OC(=O)c1cc(O)c(O)c(O)c1)c1cc(O)c(O)c(O)c1 (stereo not drawn) [formula (II)] | ~73.7% | 
3 | O=c1cc(CO)occ1O [kojic acid] |  | comparable
